Laboratory results reported in patent publication US9861117B2 (priority 2009, dated 2018).
Read-outs that look alike come from different tables or passages of the source.

Key:
[1] = system: Clostridium perfringens; format: cell-based
[2] = system: Clostridium perfringens; format: in vivo, broilers; parameters: Clostridium perfringens counts in jejunum: unit not given here; settings: 1000 ppm in feed; for Clostridium perfringens counts in jejunum: day 13 of age
[3] = system: Clostridium perfringens; format: in vivo; settings: 0-42 day, infected broilers, 1000 ppm in feed
[4] = Diarrhoea score of weaned piglets fed supplemented feed; settings: 1000 ppm in feed; for Diarrhoea score: average over the total period
[5] = Recovery in duodenum, jejunum and ileum of broilers fed supplemented feed; format: in vivo; settings: 1000 ppm in feed, day 43 of age, FIG. 3
From the text: Broilers were offered feed supplemented with 1000 ppm of either dodecanoic acid or ethyl dodecanoate throughout the trial. At day 43 of age, 12 birds per treatment were sacrificed and the content of the duodenum, jejunum and ileum was harvested and analysed for levels of ethyl dodecanoate and dodecanoic acid. In FIG. 3 the mean levels are depicted.

[6] = Challenged broilers (10^8 CFU C. perfringens day 9-11)
[7] = Overall (challenged and non-challenged)
[8] = Example 1, FIG. 1, all tested levels, broth, 8 hours

CCCCCCCCCCCC(=O)O [dodecanoic acid, reference compound]
Inhibition of growth of Clostridium perfringens (OD) ([1]; Example 2, FIG. 2, at 67 ppm): not as effective
Clostridium perfringens counts in jejunum [2, 6]: 2.122
Clostridium perfringens counts in jejunum ([2]; Non-challenged broilers): 1.418
Clostridium perfringens counts in jejunum [2, 7]: 1.770
Feed conversion ratio [3]: 1.636
Feed intake [3]: 104.3 g/day
Mortality [3]: 8.333%
Weight gain [3]: 63.78 g/day
Diarrhoea score [4]: 46.64 ab

CCCCCCCCCCCC(=O)OCC [ethyl dodecanoate]
Inhibition of growth of Clostridium perfringens (OD) [1, 8]: complete inhibition
Inhibition of growth of Clostridium perfringens (OD) ([1]; Example 2, FIG. 2, lowest inclusion level of treatment): complete inhibition
Level recovered in the jejunum [5]: higher than the free fatty acid
Clostridium perfringens counts in jejunum [2, 6]: 0.977
Clostridium perfringens counts in jejunum ([2]; Non-challenged broilers): 1.048
Clostridium perfringens counts in jejunum [2, 7]: 1.013
Effect on Clostridium counts in jejunum (in words) ([2]; broilers, versus dodecanoic acid): overall significant reduction
Feed conversion ratio [3]: 1.626
Feed intake [3]: 106.5 g/day
Mortality [3]: 4.621%
Weight gain [3]: 65.5 g/day
Diarrhoea score [4]: 42.41 b
Effect on diarrhoea (in words) ([4]; versus control): significantly reduce diarrhoea

CCCCCCCC(=O)OC [methyl octanoate]
Inhibition of growth of Clostridium perfringens (OD) [1, 8]: nearly the same results
